{"source": "patent US20150177246A1", "about": "“FUSION GENE OF CEP55 GENE AND RET GENE” (NATIONAL CANCER CENTER, priority 2012, published 2015)", "system": "downstream signals (STAT3, AKT, MAPK) of the CEP55-RET fusion polypeptide in NIH-3T3 cells", "test": "Western blotting of downstream signals of the RET fusion polypeptide after serum starvation and culture with a RET tyrosine kinase inhibitor", "type": "cell-based, murine", "conditions": "inhibitor 1 μM in medium after serum starvation; NIH-3T3 cells expressing wild-type CEP55-RET; FIG. 7", "excerpt": "In this figure, “CEP55-RET” represents the results for cell lines expressing the CEP55-RET fusion polypeptide, and “KIF5B-RET” represents the results for cell lines expressing the KIF5B-RET fusion polypeptide. […] The “STAT3” and “p-STAT3 (Y705)” rows show the results of detecting STAT3 and phosphorylated STAT3, respectively. The “AKT” and “p-AKT (S473)” show the results of detecting AKT and phosphorylated AKT, respectively. The “MAPK” and “p-MAPK (T202/Y204)” rows show the results of detecting MAPK and phosphorylated MAPK, respectively.\nNext, normal murine fibroblast line NIH-3T3 cells were infected with each of the thus-prepared retroviral vectors to obtain cell lines stably expressing the wild-type or the mutated CEP55-RET fusion polypeptide.\nIn addition, the cell lines stably expressing the wild-type or the mutated RET fusion polypeptide were each cultured in a liquid medium, subjected to serum starvation, and then cultured again with the medium being replaced with the one supplemented with a RET tyrosine kinase inhibitor (vandetanib or XL184). Protein from each of the thus-obtained cell lines was extracted and subjected to Western blotting analysis using antibodies against various phosphorylated or unphosphorylated proteins to thereby analyze the downstream signals of the RET fusion polypeptides."}
{"smiles": "COc1cc2c(Nc3ccc(Br)cc3F)ncnc2cc1OCC1CCN(C)CC1", "note": "[V, 4-(4-bromo-2-fluoroanilino)-6-methoxy-7-(1-methylpiperidin-4-ylmethoxy)quinazoline]", "values": [{"measurement": "phosphorylation of MAPK, p-MAPK (T202/Y204705)", "value": "significantly suppressed"}, {"measurement": "phosphorylation of STATS, p-STAT3 (Y705)", "value": "significantly suppressed"}]}
